From PMC3415323 (International Journal of Nanomedicine, 2012)

Molecular target: p-gp (Homo sapiens, UniProt P08183)
Assay: Effect of p-gp inhibitors on cellular transport of HSYA solution
Type: in vitro ADME
Conditions: Figure 5A

Sequence of p-gp (P08183 whole entry): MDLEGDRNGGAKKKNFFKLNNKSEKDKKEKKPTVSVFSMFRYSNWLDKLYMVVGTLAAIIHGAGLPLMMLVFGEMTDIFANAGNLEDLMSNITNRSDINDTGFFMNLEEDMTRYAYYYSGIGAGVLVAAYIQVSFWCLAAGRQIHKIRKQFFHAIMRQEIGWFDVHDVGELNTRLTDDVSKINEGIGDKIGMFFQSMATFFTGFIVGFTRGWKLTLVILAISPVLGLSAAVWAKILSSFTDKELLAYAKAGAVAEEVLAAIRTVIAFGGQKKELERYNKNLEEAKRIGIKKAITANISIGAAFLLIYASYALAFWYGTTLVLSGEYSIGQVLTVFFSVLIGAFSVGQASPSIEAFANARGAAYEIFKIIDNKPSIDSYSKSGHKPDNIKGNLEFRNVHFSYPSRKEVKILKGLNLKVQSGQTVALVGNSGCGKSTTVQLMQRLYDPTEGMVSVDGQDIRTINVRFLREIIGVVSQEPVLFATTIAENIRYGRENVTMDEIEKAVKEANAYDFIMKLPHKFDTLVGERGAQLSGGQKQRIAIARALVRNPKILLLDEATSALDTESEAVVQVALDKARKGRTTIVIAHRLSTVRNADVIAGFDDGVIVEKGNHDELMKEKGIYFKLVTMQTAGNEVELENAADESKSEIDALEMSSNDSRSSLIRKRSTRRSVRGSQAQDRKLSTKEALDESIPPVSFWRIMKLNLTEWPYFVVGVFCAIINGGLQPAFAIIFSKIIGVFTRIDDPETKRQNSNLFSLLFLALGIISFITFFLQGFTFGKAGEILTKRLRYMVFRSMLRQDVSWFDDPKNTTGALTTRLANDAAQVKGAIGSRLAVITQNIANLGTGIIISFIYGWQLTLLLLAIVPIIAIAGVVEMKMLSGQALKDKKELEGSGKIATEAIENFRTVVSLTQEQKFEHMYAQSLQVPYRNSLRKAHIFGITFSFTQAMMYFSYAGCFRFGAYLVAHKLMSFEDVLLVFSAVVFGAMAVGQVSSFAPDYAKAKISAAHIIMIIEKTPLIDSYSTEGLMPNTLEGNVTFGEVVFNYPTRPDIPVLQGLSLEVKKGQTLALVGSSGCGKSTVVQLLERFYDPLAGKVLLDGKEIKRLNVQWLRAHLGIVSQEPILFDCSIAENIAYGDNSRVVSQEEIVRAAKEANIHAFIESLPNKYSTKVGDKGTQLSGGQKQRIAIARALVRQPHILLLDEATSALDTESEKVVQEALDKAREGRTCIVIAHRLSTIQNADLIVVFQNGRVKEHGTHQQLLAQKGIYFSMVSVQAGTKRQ

effect on the absorption of HSYA on Caco-2 cells: significantly increased
Structure (SMILES): Cc1nc(C)c(C)nc1C [TMP, tetramethylpyrazine]
